Values of other authors in patent publication US8859001B2, “Fenoldopam formulations and pro-drug derivatives” (priority 2007, dated 2014).
Where a name gives a salt, the structure may show the parent alone. Read-outs that look alike come from different tables or passages of the source.

Tests used:
[1] = test system: human lymphoma and leukemia lines (Jurkat, HuT-78, K-562, Daudi, Raji); details: for effectiveness in killing lymphoma and leukemia: selective dopamine D1/5 receptor agonists tested
[2] = test system: TCR-activated human normal peripheral T-cells
[3] = test system: mice; details: mouse, in vivo, po
[4] = test system: muscarinic receptors
[5] = test system: α2-adrenoceptors
[6] = IV infusion
[7] = test system: β adrenoceptors
[8] = test system: 5HT2 receptors
[9] = test system: resting (i.e., not TCR-activated) human normal peripheral T-cells; details: in vitro
[10] = test system: 5HT1 receptors
[11] = test system: D2-like receptors
[12] = test system: patients; details: clinical use
[13] = test system: α1 adrenoceptors

## Br.Oc1cc2c(cc1O)C(c1ccccc1)CNCC2 (racemic) [SKF 38393 hydrobromide, (±)-1-phenyl-2,3,4,5-tetrahydro-(1H)-3-benzazepine-7,8-diol hydrobromide]
[1]
  effectiveness in killing lymphoma and leukemia: effective in killing lymphoma and leukemia

## Cl.NC[C@@H]1O[C@H](C23CC4CC(CC(C4)C2)C3)Cc2c1ccc(O)c2O [A 77636 hydrochloride, (1R-cis)-1-(aminomethyl)-3,4-dihydro-3-tricyclo[3.3.1.13,7]dec-1-yl-[1H]-2-benzopyran-5,6-diol hydrochloride]
[1]; compared among dopamine receptor agonists
  relative effectiveness as cancer cell killer: the most effective cancer killers
[1]
  effectiveness in killing lymphoma and leukemia: effective in killing lymphoma and leukemia
[2]; compared among highly selective D1R agonists
  relative effectiveness as killer of TCR-activated T-cells: the most effective killers of TCR-activated T-cells

## CCOC(=O)C(C)O (stereo not shown) [Ethyl lactate, 2-hydroxypropanoic acid ethyl ester]
[3]
  LD50: higher than 5 g/kg

## Oc1ccc(C2CNCCc3c2cc(O)c(O)c3Cl)cc1 (racemic) [Fenoldopam mesylate, 6-chloro-2,3,4,5-tetrahydro-1-(4-hydroxyphenyl)-1H-3-benzazepine-7,8-diol, methanesulfonate]
[4]
  affinity: no significant affinity
[5]
  affinity: moderate affinity
[1]
  time to start of measurable cell death after exposure: 1 to 60 min
[1]; 1 mM-0.01 mM fenoldopam mesylate, five lymphoma/leukemia lines
  death of cancer cells on in vitro exposure: death of all, or the vast majority of, these cancer cells
[1]; cancer cells, after 72 hr, concentrations within 0.1 mM-0.1 nM
  death of cells (number of live and dead cells): over 98%
[6]
  half life T1/2: ~5 min
HCl/KCl buffer pH 1.5
  solubility: 9100 µg/mL
Buffer pH 6.8
  solubility: 130 µg/mL
ethanol
  solubility in ethanol: sparingly soluble
methanol
  solubility in methanol: sparingly soluble
pH 7.5
  solubility: 60 µg/mL
Propylene glycol
  solubility in propylene glycol: soluble
water
  solubility in water: sparingly soluble
[2]; in vitro
  killing of TCR-activated T-cells: kills potently a substantial proportion
[2]; normal TCR-activated T-cells, after 72 hr, concentrations within 0.1 mM-0.1 nM
  death of cells (number of live and dead cells): over 98%
[7]
  affinity: no significant affinity
[8]
  affinity: no significant affinity
[9]
  effect on resting T-cells: hardly affecting
[10]
  affinity: no significant affinity
[11]
  affinity: no significant affinity
[12]
  patients reporting the major side effects (headache, flushing and nausea): ≤ 10%
[13]
  affinity: no significant affinity

## Cl.NC[C@@H]1O[C@H](c2ccccc2)Cc2c1ccc(O)c2O (racemic) [A 68930 hydrochloride, cis-(±)-1-(aminomethyl)-3,4-dihydro-3-phenyl-1H-2-benzopyran-5,6-diol hydrochloride]
[1]
  effectiveness in killing lymphoma and leukemia: effective in killing lymphoma and leukemia
